Converted amounts (≈) assume the structure as drawn.

Common to all, as to type: functional
Assay [1] deals with Staphylococcus aureus. As to the kind of experiment: Antimicrobial activity against Staphylococcus aureus ATCC 25923 after 24 hr by broth dilution method. Particulars: ATCC 25923, 24 h.
The subject of assay [2] is Microsporum canis. As to the kind of experiment: Antimicrobial activity against Arthroderma otae ATCC 11622 after 24 hr by broth dilution method. Particulars: ATCC 11622, 24 h. A general note: In broth dilution the organism is exposed to a series of concentrations in liquid medium.
The test system of assay [3] is Staphylococcus hominis. The assay can be described thus: Antimicrobial activity against Staphylococcus hominis ATCC 27844 after 24 hr by broth dilution method. To be noted: ATCC 27844, 24 h.
Assay [4] deals with Proteus mirabilis. The assay can be described thus: Antimicrobial activity against Proteus mirabilis ATCC 49565 after 24 hr by broth dilution method. To be noted: ATCC 49565, 24 h.
The subject of assay [5] is Alternaria alternata. The assay can be described thus: Antimicrobial activity against Alternaria alternata ATCC 66868 after 24 hr by broth dilution method. To be noted: ATCC 66868, 24 h.
Assay [6] relates to Aspergillus awamori. As to the kind of experiment: Antimicrobial activity against Aspergillus awamori ATCC 22342 after 24 hr by broth dilution method. To be noted: ATCC 22342, 24 h.
Assay [7] relates to Fusarium solani. As to the kind of experiment: Antimicrobial activity against Fusarium solani ATCC 38136 after 24 hr by broth dilution method. Particulars: ATCC 38136, 24 h.
Assay [8] has as its system Micrococcus luteus. As to the kind of experiment: Antimicrobial activity against Micrococcus luteus ATCC 4698 after 24 hr by broth dilution method. Particulars: ATCC 4698, 24 h.
Assay [9] has as its system Aspergillus flavus. As to the kind of experiment: Antimicrobial activity against Aspergillus flavus ATCC 15517 after 24 hr by broth dilution method. Particulars: ATCC 15517, 24 h.
Assay [10] deals with Aspergillus niger. As to the kind of experiment: Antimicrobial activity against Aspergillus niger ATCC 9142 after 24 hr by broth dilution method. Particulars: ATCC 9142, 24 h.
Assay [11] deals with Bacillus spizizenii. As to the kind of experiment: Antimicrobial activity against Bacillus subtilis subsp. spizizenii ATCC 6633 after 24 hr by broth dilution method. To be noted: ATCC 6633, 24 h.
Assay [12] relates to Aspergillus fumigatus. The assay can be described thus: Antimicrobial activity against Aspergillus fumigatus after 24 hr by broth dilution method.
The test system of assay [13] is Bacillus cereus. The assay can be described thus: Antimicrobial activity against Bacillus cereus ATCC 11778 after 24 hr by broth dilution method. To be noted: ATCC 11778, 24 h.
Assay [14] has as its system Rhizoctonia solani. As to the kind of experiment: Antimicrobial activity against Rhizoctonia solani ATCC 76131 after 24 hr by broth dilution method. Particulars: ATCC 76131, 24 h.
The test system of assay [15] is Proteus vulgaris. The assay can be described thus: Antimicrobial activity against Proteus vulgaris ATCC 13315 after 24 hr by broth dilution method. Particulars: ATCC 13315, 24 h.
The subject of assay [16] is Salmonella typhi. As to the kind of experiment: Antimicrobial activity against Salmonella enterica subsp. enterica serovar Typhi ATCC 19430 after 24 hr by broth dilution method. To be noted: ATCC 19430, 24 h.
Assay [17] concerns Trichoderma viride. As to the kind of experiment: Antimicrobial activity against Hypocrea rufa ATCC 52440 after 24 hr by broth dilution method. To be noted: ATCC 52440, 24 h.
For assay [18], the system named is Trichophyton longifusum. As to the kind of experiment: Antimicrobial activity against Trichophyton longifusum ATCC 22397 after 24 hr by broth dilution method. Particulars: ATCC 22397, 24 h.
Assay [19] deals with Pseudomonas aeruginosa. As to the kind of experiment: Antimicrobial activity against Pseudomonas aeruginosa ATCC 10145 after 24 hr by broth dilution method. To be noted: ATCC 10145, 24 h.
Assay [20] relates to Candida albicans. The assay can be described thus: Antimicrobial activity against Candida albicans ATCC 10231 after 24 hr by broth dilution method. Particulars: ATCC 10231, 24 h.
Assay [21] has as its system Bacillus pumilus. The assay can be described thus: Antimicrobial activity against Bacillus pumilus ATCC 14884 after 24 hr by broth dilution method. To be noted: ATCC 14884, 24 h.
The subject of assay [22] is Staphylococcus epidermidis. The assay can be described thus: Antimicrobial activity against Staphylococcus epidermidis ATCC 12228 after 24 hr by broth dilution method. To be noted: ATCC 12228, 24 h.
For assay [23], the system named is Escherichia coli. As to the kind of experiment: Antimicrobial activity against Escherichia coli ATCC 25922 after 24 hr by broth dilution method. To be noted: ATCC 25922, 24 h.
Assay [24] concerns Klebsiella pneumoniae. The assay can be described thus: Antimicrobial activity against Klebsiella pneumoniae ATCC 13883 after 24 hr by broth dilution method. To be noted: ATCC 13883, 24 h.

As usually defined, the MIC is the lowest concentration that inhibits growth of the organism. A higher MIC goes with a less susceptible organism. For `COc1ccc(C2C(Cl)C(=O)N2/N=C2\C(=O)Nc3ccc(Cl)cc32)cc1` (stereo unspecified), the MIC in assay [1] was found to be 18.8 µg/mL (≈ 48 µM); in assay [2] it was 9.37 µg/mL (≈ 24 µM); in assay [3], 18.8 µg/mL (≈ 48 µM); in [4], 18.8 µg/mL (≈ 48 µM); in assay [5], 9.37 µg/mL (≈ 24 µM); in assay [6], 4.68 µg/mL (≈ 12 µM). Further, the MIC in assay [7] is 4.68 µg/mL (≈ 12 µM); in [8], 9.37 µg/mL (≈ 24 µM); in [9] it was 9.37 µg/mL (≈ 24 µM); in assay [10], 4.68 µg/mL (≈ 12 µM); in [11], 18.8 µg/mL (≈ 48 µM); in assay [12], 4.68 µg/mL (≈ 12 µM). Moreover, the MIC in [13] was determined as 9.37 µg/mL (≈ 24 µM); in assay [14], 9.37 µg/mL (≈ 24 µM); in [15], 18.8 µg/mL (≈ 48 µM); in [16] it was 9.37 µg/mL (≈ 24 µM); in [17], 4.68 µg/mL (≈ 12 µM); in assay [18] it was 4.68 µg/mL (≈ 12 µM). Moreover, the MIC came out at 9.37 µg/mL (≈ 24 µM) in [19]; 4.68 µg/mL (≈ 12 µM) in assay [20]; 9.37 µg/mL (≈ 24 µM) in assay [21]; 9.37 µg/mL (≈ 24 µM) in assay [22]; 9.37 µg/mL (≈ 24 µM) in [23]; 9.37 µg/mL (≈ 24 µM) in [24].

For the compound `CN(C)c1ccc(C2SCC(=O)N2/N=C2\C(=O)Nc3ccc(Cl)cc32)cc1` (stereo unspecified), the minimum inhibitory concentration (MIC) came out at 9.37 µg/mL (≈ 23.4 µM) in [1]; 9.37 µg/mL (≈ 23.4 µM) in assay [2]; 9.37 µg/mL (≈ 23.4 µM) in [3]; 9.37 µg/mL (≈ 23.4 µM) in [4]; 4.68 µg/mL (≈ 11.7 µM) in assay [5]; 9.37 µg/mL (≈ 23.4 µM) in assay [6]. The MIC in [7] was determined as 4.68 µg/mL (≈ 11.7 µM); in assay [8], 18.8 µg/mL (≈ 46.8 µM); in [9], 4.68 µg/mL (≈ 11.7 µM); in assay [10], 4.68 µg/mL (≈ 11.7 µM); in assay [11], 18.8 µg/mL (≈ 46.8 µM); in assay [12], 4.68 µg/mL (≈ 11.7 µM). The MIC in [13] came out at 18.8 µg/mL (≈ 46.8 µM); in assay [14] it was 4.68 µg/mL (≈ 11.7 µM); in [15], 18.8 µg/mL (≈ 46.8 µM); in assay [16], 9.37 µg/mL (≈ 23.4 µM); in assay [17], 4.68 µg/mL (≈ 11.7 µM); in [18], 4.68 µg/mL (≈ 11.7 µM). Moreover, the MIC in assay [19] was determined as 18.8 µg/mL (≈ 46.8 µM); in [20] it was 9.37 µg/mL (≈ 23.4 µM); in assay [21], 9.37 µg/mL (≈ 23.4 µM); in [22], 18.8 µg/mL (≈ 46.8 µM); in [23] it was 18.8 µg/mL (≈ 46.8 µM); in assay [24] it was 18.8 µg/mL (≈ 46.8 µM).

For the compound `O=C1Nc2ccc(Cl)cc2/C1=N/N1C(=O)CSC1c1ccc(Cl)cc1` (stereo unspecified), the MIC in [1] is 18.8 µg/mL (≈ 47.8 µM); in assay [2] it was 4.68 µg/mL (≈ 11.9 µM); in [3], 9.37 µg/mL (≈ 23.9 µM); in assay [4], 18.8 µg/mL (≈ 47.8 µM); in [5] it was 4.68 µg/mL (≈ 11.9 µM); in [6], 9.37 µg/mL (≈ 23.9 µM). Also, the minimal inhibitory concentration (MIC) was determined as 9.37 µg/mL (≈ 23.9 µM) in assay [7]; 18.8 µg/mL (≈ 47.8 µM) in assay [8]; 4.68 µg/mL (≈ 11.9 µM) in [9]; 4.68 µg/mL (≈ 11.9 µM) in assay [10]; 37.5 µg/mL (≈ 95.6 µM) in assay [11]; 4.68 µg/mL (≈ 11.9 µM) in assay [12]. The MIC turned out to be 9.37 µg/mL (≈ 23.9 µM) in assay [13]; 9.37 µg/mL (≈ 23.9 µM) in [14]; 37.5 µg/mL (≈ 95.6 µM) in assay [15]; 9.37 µg/mL (≈ 23.9 µM) in assay [16]; 9.37 µg/mL (≈ 23.9 µM) in assay [17]; 4.68 µg/mL (≈ 11.9 µM) in assay [18]. For the same compound, the MIC in [19] stood at 9.37 µg/mL (≈ 23.9 µM); in assay [20], 4.68 µg/mL (≈ 11.9 µM); in [21] it was 9.37 µg/mL (≈ 23.9 µM); in assay [22] it was 18.8 µg/mL (≈ 47.8 µM); in [23], 9.37 µg/mL (≈ 23.9 µM); in [24], 18.8 µg/mL (≈ 47.8 µM).

As for `O=C1Nc2ccc(Cl)cc2/C1=N/N1C(=O)C(Cl)C1c1ccccc1O` (stereo unspecified), the MIC stood at 150 µg/mL (≈ 399 µM) in assay [1]; 150 µg/mL (≈ 399 µM) in assay [2]; 300 µg/mL (≈ 797 µM) in [3]; 150 µg/mL (≈ 399 µM) in [4]; 150 µg/mL (≈ 399 µM) in [5]; 150 µg/mL (≈ 399 µM) in assay [6]. For the same compound, the MIC in [7] came to 75 µg/mL (≈ 199 µM); in assay [8] it was 150 µg/mL (≈ 399 µM); in [9], 150 µg/mL (≈ 399 µM); in assay [10], 75 µg/mL (≈ 199 µM); in assay [11], 300 µg/mL (≈ 797 µM); in assay [12], 150 µg/mL (≈ 399 µM). Moreover, the MIC in assay [13] turned out to be 300 µg/mL (≈ 797 µM); in [14], 150 µg/mL (≈ 399 µM); in [15], 150 µg/mL (≈ 399 µM); in [16], 300 µg/mL (≈ 797 µM); in assay [17], 150 µg/mL (≈ 399 µM); in assay [18], 150 µg/mL (≈ 399 µM). Also, the MIC in [19] is 300 µg/mL (≈ 797 µM); in [20], 75 µg/mL (≈ 199 µM); in assay [21], 300 µg/mL (≈ 797 µM); in [22], 300 µg/mL (≈ 797 µM); in [23] it was 150 µg/mL (≈ 399 µM); in assay [24], 300 µg/mL (≈ 797 µM).

For the origin of these results see ChEMBL document CHEMBL3046063, “Synthesis and antimicrobial activity of 5-chloroindoline-2,3-dione derivatives” (2012).
